Measurements published in patent publication US11407711B2, “Benzamide compound and use thereof” (METISA BIOTECHNOLOGY CO., LTD., priority 2018, dated 2022).
Where two headings read alike, the source gives them in different places.

Columns and labels:
Type in all cases: in vivo
Plutella xylostella = assay: Insecticidal activity against Plutella xylostella (Airbrush spray on cabbage leaf discs); conditions: for Fatality rate (%, 3 d after administration) 0.05 mg/L: Table 74, 0.05 mg/L; for pest or weed control at 0.5 µg/mL / pest or weed control at 1 µg/mL / pest or weed control at 10 µg/mL: Plutella xylostella, foliar, 72 h; for pest or weed control at 10 µg/mL: Table 71, 10 mg/L, read-out: Fatality rate (%, 3 d after administration) 10 mg/L
Procedure: (§1) The compound to be tested was dissolved by a mixed solvent of acetone/methanol (1:1), and then diluted by water containing 0.1% (wt) Tween 80 to the required concentration.
(§2) An Airbrush spray method was adopted for the determination of the activity, with armyworm, Plutella xylostella and Chilo suppressalis as targets.
Determination method: cabbage blades were punched into 2 cm (diameter) leaf discs by a puncher; with the pressure of Airbrush spray being 10 psi (about 0.7 kg/cm^2), both sides of each leaf disc were sprayed with the amount of 0.5 ml. After dried in the shade, each leaf disc was inoculated with 10 3rd-instar larvaes, 3 repeats for each leaf disc. And then, the treated leaf discs were put into an observation room (25° C., relative humidity: 60-70%) for cultivation; the number of the survivals was surveyed 1 d, 2 d and 3 d after administration, and then the death rate was calculated.

Chilo suppressalis = assay: Insecticidal activity against Chilo suppressalis (spray on rice seedlings, stems fed to larvae); conditions: for pest or weed control at 1 µg/mL / pest or weed control at 4 µg/mL / pest or weed control at 40 µg/mL: Chilo suppressalis, 72 h, survivals surveyed 3 d after administration, read-out: fatality rate against Chilo suppressalis; for pest or weed control at 1 µg/mL: 1 mg/L; for pest or weed control at 4 µg/mL: 4 mg/L; for pest or weed control at 40 µg/mL: 40 mg/L
Procedure: as §1, §2
Determination method: 1) preparation of rice seedlings: rice was cultivated in small plastic cups (diameter: 4.5 cm and height: 4 cm) at a constant temperature room (temperature: 26-28° C., relative humidity: 60-80% around and illumination: 16 hL:8 hD), after the rice grew to a 4-5 leaf stage, vigorous and uniform-growth rice seedlings were selected and treated with an insecticide, 3 repeats for each treatment. 2) Preparation of pests for test: 3rd-instar larvaes of Chilo suppressalis fed continuously in the room. 3) Inoculation of pests on rice stems by spray. The whole plants of the rice seedlings were sprayed by a spray method uniformly, with the dose of 15 ml for each treatment. The blank control was treated first, and the above operation was repeated in an order of lower to higher test concentration. After sprayed, rice seedlings were placed in the shade to dry the insecticide liquor, and then stalks about 5 cm above the basal part of the stems were cut to be fed to the pests for test. Glass petri dishes (diameter: […]) were prepared, cushioned by filter paper at the bottom thereof, and subjected to water addition for moisturizing; about 20 pieces of rice stems were put in each dish and inoculated with 10 larvaes; then the petri dishes were closed by non-woven fabrics and placed in a constant temperature room for culture. The number of survivals was surveyed 3 d after administration.

armyworm = assay: Insecticidal activity against armyworm (Airbrush spray on maize blade segments); conditions: 72 h, 3 d after administration, 3rd-instar larvae, read-out: fatality rate against armyworm; for pest or weed control at 0.05 µg/mL: 0.05 mg/L; for pest or weed control at 0.1 µg/mL: 0.1 mg/L; for pest or weed control at 0.5 µg/mL: 0.5 mg/L
Procedure: as §1, §2
Determination method: maize blades were cut into 2 cm (length) segments; with the pressure of Airbrush spray being 10 psi (about 0.7 kg/cm^2), both sides of each blade segment were sprayed with the amount of 0.5 ml. After dried in the shade, each segment was inoculated with 10 3rd-instar larvaes, 3 repeats for each segment. And then, the treated segments were put into an observation room (25° C., relative humidity: 60-70%) for cultivation; the number of the survivals was surveyed 1 d, 2 d and 3 d after administration, and then the death rate was calculated.

[1] = Table 73, 0.5 mg/L, 3 d after administration
[2] = Table 73, 1 mg/L, 3 d after administration
[3] = Table 74, 0.5 mg/L, 3 d after administration
[4] = Table 73, 0.5 mg/L, 3 d after administration, read-out: Fatality rate (%, 3 d after administration) 0.5 mg/L
[5] = Table 73, 1 mg/L, 3 d after administration, read-out: Fatality rate (%, 3 d after administration) 1 mg/L
[6] = Table 75, fast-acting efficacy, dose 0.5 mg/L
[7] = Table 76, fast-acting efficacy, dose 0.05 mg/L
[8] = 0.5 mg/L, 3 d after administration, read-out: fatality rate against Plutella xylostella
[9] = 1 mg/L, 3 d after administration, read-out: fatality rate against Plutella xylostella

Compound | Fatality rate (%, 3 d after administration) 0.05 mg/L (Plutella xylostella; 3 d after administration) [%] | pest or weed control at 0.5 µg/mL (Plutella xylostella; [4]) [%] | pest or weed control at 1 µg/mL (Plutella xylostella; [5]) [%] | pest or weed control at 0.5 µg/mL (Plutella xylostella; [8]) [%] | pest or weed control at 1 µg/mL (Plutella xylostella; [9]) [%] | pest or weed control at 10 µg/mL (Plutella xylostella; 3 d after administration) [%] | pest or weed control at 0.05 µg/mL (armyworm) [%] | pest or weed control at 0.1 µg/mL (armyworm) [%] | pest or weed control at 0.5 µg/mL (armyworm) [%] | pest or weed control at 1 µg/mL (Chilo suppressalis) [%] | pest or weed control at 4 µg/mL (Chilo suppressalis) [%] | pest or weed control at 40 µg/mL (Chilo suppressalis) [%] | also measured
NC(=O)CCN(C(=O)c1ccccc1)c1cccc(C(=O)N(CCC(N)=O)c2c(Br)cc(C(F)(C(F)(F)F)C(F)(F)F)cc2C(F)(F)F)c1F [CK10, reference compound] |  |  |  |  |  |  |  |  |  |  |  |  | Fatality rate (%, 3 d after administration) 0.5 mg/L (Plutella xylostella; [1]): 0%; Fatality rate (%, 3 d after administration) 1 mg/L (Plutella xylostella; [2]): 55%
NC(=O)CCN(C(=O)c1ccccc1)c1cccc(C(=O)N(CCC(N)=O)c2c(Br)cc(C(F)(C(F)(F)F)C(F)(F)F)cc2C(F)(F)F)c1F [CK11, reference compound] | 0 |  |  |  |  |  |  |  |  |  |  |  | Fatality rate (%, 3 d after administration) 0.5 mg/L (Plutella xylostella; [3]): 75%
NC(=O)CCN(C(=O)c1ccccc1)c1cccc(C(=O)N(CCC(N)=O)c2c(Br)cc(C(F)(C(F)(F)F)C(F)(F)F)cc2C(F)(F)F)c1F [CK12, reference compound] |  |  |  |  |  |  |  |  |  |  |  |  | Fatality rate (%, 3 d after administration) 1 mg/L (Plutella xylostella; Table 72, 1 mg/L, 3 d after administration): 0%; Fatality rate (%, 3 d after administration) 5 mg/L (Plutella xylostella; Table 72, 5 mg/L, 3 d after administration): 60%
NC(=O)CCN(C(=O)c1ccccc1)c1cccc(C(=O)N(CCC(N)=O)c2c(Br)cc(C(F)(C(F)(F)F)C(F)(F)F)cc2C(F)(F)F)c1F [CK13, reference compound] |  |  |  |  |  |  |  |  |  |  |  |  | Fatality rate (%, 3 d after administration) 0.5 mg/L (Plutella xylostella; [1]): 0%; Fatality rate (%, 3 d after administration) 1 mg/L (Plutella xylostella; [2]): 75%
NC(=O)CCN(C(=O)c1ccccc1)c1cccc(C(=O)N(CCC(N)=O)c2c(Br)cc(C(F)(C(F)(F)F)C(F)(F)F)cc2C(F)(F)F)c1F [CK14, reference compound] | 0 |  |  |  |  |  |  |  |  |  |  |  | Fatality rate (%, 3 d after administration) 0.5 mg/L (Plutella xylostella; [3]): 60%
O=C(Nc1cccc(C(=O)Nc2c(Br)cc(C(F)(C(F)(F)F)C(F)(F)F)cc2Br)c1F)c1ccccc1 [CK15, reference compound] |  | 50 | 90 |  |  |  |  |  |  |  |  |  | Fatality rate (%) 1 d after administration (Plutella xylostella; [6]): 0%; Fatality rate (%) 2 d after administration (Plutella xylostella; [6]): 30%; Fatality rate (%) 3 d after administration (Plutella xylostella; Table 75, fast-acting efficacy, dose 0.5 mg/L, 3 d after administration): 50%; Fatality rate (%, 3 d after administration) 1.25 mg/L (Chilo suppressalis; Table 77, 1.25 mg/L, 3 d after administration): 8.6%; Fatality rate (%, 3 d after administration) 2.5 mg/L (Chilo suppressalis; Table 77, 2.5 mg/L, 3 d after administration): 22.2%; Fatality rate (%, 3 d after administration) 5 mg/L (Chilo suppressalis; Table 77, 5 mg/L, 3 d after administration): 50.3%
CN(C(=O)c1ccccc1)c1cccc(C(=O)Nc2c(Br)cc(C(F)(C(F)(F)F)C(F)(F)F)cc2C(F)(F)F)c1F [CK16, broflanilide, reference compound] | 80.8 |  |  |  |  |  |  |  |  |  |  |  | pest or weed control at 0.5 µg/mL (Plutella xylostella; Table 74, 0.5 mg/L, 3 d after administration, read-out: Fatality rate (%, 3 d after administration) 0.5 mg/L): 100%; Fatality rate (%) 1 d after administration (Plutella xylostella; [7]): 0%; Fatality rate (%) 2 d after administration (Plutella xylostella; [7]): 52.5%; Fatality rate (%) 3 d after administration (Plutella xylostella; Table 76, fast-acting efficacy, dose 0.05 mg/L, 3 d after administration): 80.8%; Fatality rate (%, 3 d after administration) 0.625 mg/L (Chilo suppressalis; Table 78, 0.625 mg/L, 3 d after administration): 10%; Fatality rate (%, 3 d after administration) 1.25 mg/L (Chilo suppressalis; Table 78, 1.25 mg/L, 3 d after administration): 60.3%; Fatality rate (%, 3 d after administration) 2.5 mg/L (Chilo suppressalis; Table 78, 2.5 mg/L, 3 d after administration): 85.5%
N#CCN(C(=O)c1ccc(F)cc1)c1cccc(C(=O)Nc2c(Br)cc(C(F)(C(F)(F)F)C(F)(F)F)cc2Br)c1F [Compound 2.7] |  | 100 | 100 | ≥ 90 | ≥ 90 | 100 | ≥ 90 | ≥ 90 | ≥ 90 | ≥ 90 | ≥ 90 | ≥ 90 | 
N#CCN(C(=O)c1ccc(C#N)cc1)c1cccc(C(=O)Nc2c(Br)cc(C(F)(C(F)(F)F)C(F)(F)F)cc2Br)c1F [Compound 2.17] |  | 100 | 100 | ≥ 90 | ≥ 90 | 100 | ≥ 90 | ≥ 90 | ≥ 90 | ≥ 90 | ≥ 90 | ≥ 90 | 
N#CCN(C(=O)c1ccc(C(F)(F)F)cc1)c1cccc(C(=O)Nc2c(Br)cc(C(F)(C(F)(F)F)C(F)(F)F)cc2Br)c1F [Compound 2.43] |  | 100 | 100 | ≥ 90 | ≥ 90 | 100 | ≥ 90 | ≥ 90 | ≥ 90 | ≥ 90 | ≥ 90 | ≥ 90 | 
